# Results: PubChem BioAssay (NCI)
# Several values for one entry are separate records, joined by “and”; a condition that tells them apart may be missing. Equal entries are not always repeated.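 A five-concentration, 48-hour dose response in 96-well plates underlies each endpoint, interpolated linearly between surrounding concentrations. GI50: concentration for 50% inhibition of growth. TGI denotes the concentration required for complete inhibition of growth.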
# Columns and labels:
# Assay in all cases: NCI anticancer screen, dose series, 48 h
# [1] = test system: 786-0 renal
# [2] = test system: A498 renal
# [3] = test system: A549 NSCLC
# [4] = test system: ACHN renal
# [5] = test system: BT-549 breast
# [6] = test system: CAKI-1 renal
# [7] = test system: CCRF-CEM leukemia
# [8] = test system: COLO 205 colon
# [9] = test system: DU-145 prostate
# [10] = test system: EKVX NSCLC
# [11] = test system: HCC-2998 colon
# [12] = test system: HCT-116 colon
# [13] = test system: HCT-15 colon
# [14] = test system: HL-60(TB) leukemia
# [15] = test system: HOP-62 NSCLC
# [16] = test system: HOP-92 NSCLC
# [17] = test system: HS 578T breast
# [18] = test system: HT29 colon
# [19] = test system: IGROV1 ovarian
# [20] = test system: K-562 leukemia
# [21] = test system: KM12 colon
# [22] = test system: LOX IMVI melanoma
# [23] = test system: M14 melanoma
# [24] = test system: MALME-3M melanoma
# [25] = test system: MCF7 breast
# [26] = test system: MDA-MB-231 breast
# [27] = test system: MDA-MB-435
# [28] = test system: MOLT-4 leukemia
# [29] = test system: NCI-H226 lung
# [30] = test system: NCI-H23 lung
# [31] = test system: NCI-H460 lung
# [32] = test system: NCI-H522 lung
# [33] = test system: NCI/ADR-RES ovarian
# [34] = test system: OVCAR-3 ovarian
# [35] = test system: OVCAR-4 ovarian
# [36] = test system: OVCAR-5 ovarian
# [37] = test system: OVCAR-8 ovarian
# [38] = test system: PC-3 prostate
# [39] = test system: RPMI-8226 leukemia
# [40] = test system: RXF 393 renal
# [41] = test system: SF-268 CNS
# [42] = test system: SF-295 CNS
# [43] = test system: SF-539 CNS
# [44] = test system: SK-MEL-2 melanoma
# [45] = test system: SK-MEL-28 melanoma
# [46] = test system: SK-MEL-5 melanoma
# [47] = test system: SK-OV-3 ovarian
# [48] = test system: SN12C renal
# [49] = test system: SNB-19 CNS
# [50] = test system: SNB-75 CNS
# [51] = test system: SR leukemia
# [52] = test system: SW-620 colon
# [53] = test system: T-47D breast
# [54] = test system: TK-10 renal
# [55] = test system: U251 CNS
# [56] = test system: UACC-257 melanoma
# [57] = test system: UACC-62 melanoma
# [58] = test system: UO-31 renal
# [59] = test system: MDA-N
compound,measurement,setting,value
CS(=O)(=O)CCNCc1ccc(-c2ccc3ncnc(Nc4ccc(OCc5ccccc5)c(C(F)(F)F)c4)c3c2)o1,GI50,[1],5.32 µM
same,TGI,[1],11 µM
same,GI50,[2],6.51 µM
same,TGI,[2],25 µM
same,GI50,[3],8.23 µM
same,TGI,[3],> 25 µM
same,GI50,[4],7.32 µM
same,TGI,[4],> 25 µM
same,GI50,[5],8.99 µM
same,TGI,[5],> 25 µM
same,GI50,[6],7.09 µM
same,TGI,[6],> 25 µM
same,GI50,[7],7.29 µM
same,TGI,[7],> 23.1 µM
same,GI50,[8],4.97 µM
same,TGI,[8],9.11 µM
same,GI50,[9],10.3 µM
same,TGI,[9],> 25 µM
same,GI50,[10],7.87 µM
same,TGI,[10],> 25 µM
same,GI50,[11],4.35 µM
same,TGI,[11],8.25 µM
same,GI50,[12],4.27 µM
same,TGI,[12],7.88 µM
same,GI50,[13],4.65 µM
same,TGI,[13],10.2 µM
same,GI50,[14],5.65 µM
same,TGI,[14],13.3 µM
same,GI50,[15],6.16 µM
same,TGI,[15],15.8 µM
same,GI50,[16],4.9 µM
same,TGI,[16],20.8 µM
same,GI50,[17],4.16 µM
same,TGI,[17],12.2 µM
same,GI50,[18],4.95 µM
same,TGI,[18],9.05 µM
same,GI50,[19],6.36 µM
same,TGI,[19],> 22.2 µM
same,GI50,[20],6.83 µM
same,TGI,[20],18.2 µM
same,GI50,[21],5.48 µM
same,TGI,[21],11.3 µM
same,GI50,[22],4.27 µM
same,TGI,[22],8.33 µM
same,GI50,[23],5.26 µM
same,TGI,[23],10.4 µM
same,GI50,[24],4.57 µM
same,TGI,[24],9.53 µM
same,GI50,[25],4.55 µM
same,TGI,[25],9.59 µM
same,GI50,[26],4.55 µM
same,TGI,[26],8.66 µM
same,GI50,[27],4.8 µM
same,TGI,[27],10.5 µM
same,GI50,[28],5.77 µM
same,TGI,[28],17.9 µM
same,GI50,[29],7.75 µM
same,TGI,[29],> 25 µM
same,GI50,[30],6.37 µM
same,TGI,[30],> 19.4 µM
same,GI50,[31],4.8 µM
same,TGI,[31],9.34 µM
same,GI50,[32],5.02 µM
same,TGI,[32],9.94 µM
same,GI50,[33],7.03 µM
same,TGI,[33],> 25 µM
same,GI50,[34],7.37 µM
same,TGI,[34],19.2 µM
same,GI50,[35],10.3 µM
same,TGI,[35],> 25 µM
same,GI50,[36],4.87 µM
same,TGI,[36],12.5 µM
same,GI50,[37],8.39 µM
same,TGI,[37],> 25 µM
same,GI50,[38],6.88 µM
same,TGI,[38],> 21 µM
same,GI50,[39],7.37 µM
same,TGI,[39],18.2 µM
same,GI50,[40],3.53 µM
same,TGI,[40],7.77 µM
same,GI50,[41],7.99 µM
same,TGI,[41],> 25 µM
same,GI50,[42],5.1 µM
same,TGI,[42],10.6 µM
same,GI50,[43],4.69 µM
same,TGI,[43],9.88 µM
same,GI50,[44],5.68 µM
same,TGI,[44],11.4 µM
same,GI50,[45],4.43 µM
same,TGI,[45],8.83 µM
same,GI50,[46],3.55 µM
same,TGI,[46],6.87 µM
same,GI50,[47],7.19 µM
same,TGI,[47],> 22.1 µM
same,GI50,[48],5.22 µM
same,TGI,[48],12.3 µM
same,GI50,[49],4.79 µM
same,TGI,[49],9.37 µM
same,GI50,[50],6.21 µM
same,TGI,[50],24.7 µM
same,GI50,[51],7.47 µM
same,TGI,[51],19.9 µM
same,GI50,[52],4.62 µM
same,TGI,[52],8.66 µM
same,GI50,[53],6.76 µM
same,TGI,[53],18.9 µM
same,GI50,[54],7.61 µM
same,TGI,[54],22.7 µM
same,GI50,[55],4.49 µM
same,TGI,[55],8.92 µM
same,GI50,[56],4.74 µM
same,TGI,[56],9.09 µM
same,GI50,[57],4.76 µM
same,TGI,[57],8.66 µM
same,GI50,[58],5.25 µM
same,TGI,[58],17.2 µM
CCC1(O)CC(OC2CC(N(C)C)C(OC3CC(O)C(OC4OC(C)C(=O)C=C4N)C(C)O3)C(C)O2)c2c(O)c3c(c(O)c2C1C(=O)OC)C(=O)c1cccc(O)c1C3=O (stereo not given),TGI,[1],0.133 µM and 0.147 µM
same,TGI,[2],0.0129 µM
same,TGI,[7],0.0761 µM and 0.0126 µM
same,TGI,[8],0.116 µM
same,TGI,[9],0.0461 µM
same,TGI,[10],0.351 µM and 0.0968 µM
same,TGI,[11],0.118 µM
same,TGI,[12],> 100 µM
same,TGI,[13],1.17 µM
same,TGI,[14],0.108 µM
same,TGI,[15],0.855 µM
same,TGI,[16],1.67 µM
same,TGI,[17],0.366 µM and 1.47 µM
same,TGI,[18],0.215 µM
same,TGI,[20],0.125 µM and 0.0234 µM
same,TGI,[21],0.2 µM
same,TGI,[22],0.613 µM
same,TGI,[23],0.0268 µM
same,TGI,[24],0.0947 µM
same,TGI,[25],1.4 µM
same,TGI,[26],0.296 µM
same,TGI,[27],0.107 µM
same,TGI,[59],0.118 µM and 0.012 µM
same,TGI,[29],0.0806 µM
same,TGI,[30],0.036 µM
same,TGI,[31],0.0151 µM
same,TGI,[32],0.203 µM
same,TGI,[34],0.15 µM
same,TGI,[36],0.16 µM and 0.966 µM
same,TGI,[37],0.261 µM
same,TGI,[38],0.294 µM and 0.0742 µM
same,TGI,[39],0.0858 µM
same,TGI,[41],0.299 µM
same,TGI,[43],0.236 µM
same,TGI,[44],0.0272 µM
same,TGI,[45],0.17 µM and 0.0205 µM
same,TGI,[46],0.0659 µM
same,TGI,[48],1.13 µM
same,TGI,[49],0.976 µM
same,TGI,[50],0.223 µM
same,TGI,[52],0.0845 µM
same,TGI,[54],0.0778 µM
same,TGI,[55],1.08 µM
same,TGI,[57],0.0375 µM
